This experiment has as its target TNFα (Homo sapiens, UniProt P01375). In words: TNF induced HEK-Blue assay (NF-kB-driven secreted alkaline phosphatase reporter). The settings on record: TNFα 0.5 ng/mL, HEK-Blue-CD40L cells, 18 h; read-out: TNF induced HEK-Blue assay IC50 value. In kind it is cell-based. The essentials: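 HEK-Blue-CD40L cells (NF-kB-driven SEAP reporter), 20,000/well, added after 30 min pre-incubation of compound (0.004–25 μM final) with TNFα 0.5 ng/mL final at 37 °C; 18 h incubation. SEAP read with QUANTI-Blue at 620 nm; IC50 from 4-parameter logistic fit, normalized to unstimulated and stimulated DMSO controls.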

Some results are limits rather than exact numbers.

Sequence of TNFα (P01375 77-233 limits assumed): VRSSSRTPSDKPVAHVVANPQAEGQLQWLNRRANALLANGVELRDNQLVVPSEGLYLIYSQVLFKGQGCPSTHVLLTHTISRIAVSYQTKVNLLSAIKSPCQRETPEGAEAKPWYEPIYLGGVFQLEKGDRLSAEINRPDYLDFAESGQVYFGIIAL

On to `Cc1nc2ccc(-c3cnc(C(C)(C)O)nc3)cc2c(N[C@H](c2cc(C#N)ccc2F)C(F)F)c1Cl` [Example 378, (R)-3-(1-((3-chloro-6-(2-(2-hydroxypropan-2-yl)pyrimidin-5-yl)-2-methylquinolin-4-yl)amino)-2,2-difluoroethyl)-4-fluorobenzonitrile], for which the IC50 fell in the range of 10000 to 25000 nM.

`C[C@@H](Nc1c(Cl)cnc2ccc(-c3ccncc3)cc12)c1cc(-c2cncnc2)ccc1F` [Example 540, (R)-3-chloro-N-(1-(2-fluoro-5-(pyrimidin-5-yl)phenyl)ethyl)-6-(pyridin-4-yl)quinolin-4-amine]: the IC50 was under 1000 nM.

Take `Cc1nc2c(F)cc(-c3ccc(C(C)(C)O)cc3)cc2c(N[C@@H](c2ccccc2F)C(F)F)c1Cl` [Example 305, (S)-2-(4-(3-chloro-4-((2,2-difluoro-1-(2-fluorophenyl)ethyl)amino)-8-fluoro-2-methylquinolin-6-yl)phenyl)propan-2-ol]: the IC50 is under 1000 nM.

In the case of `Cc1nc2cc(F)c(-c3cnc(C(C)(C)O)nc3)cc2c(N[C@H](C)c2cc(CC(N)=O)ccc2F)c1Cl` [Example 554, (R)-2-(3-(1-((3-chloro-7-fluoro-6-(2-(2-hydroxypropan-2-yl)pyrimidin-5-yl)-2-methylquinolin-4-yl)amino)ethyl)-4-fluorophenyl)acetamide], the IC50 was under 1000 nM.

Consider `CC(Nc1c(Cl)cnc2ccc(-c3ccc(C(C)(C)O)cc3)cc12)c1ncco1` (racemic) [Example 179, 2-(4-(3-chloro-4-((1-(oxazol-2-yl)ethyl)amino)quinolin-6-yl)phenyl)propan-2-ol], for which the IC50 was under 1000 nM.

In the case of `C[C@@H](Nc1c(Cl)cnc2ccccc12)c1cc(-c2cnc(C3CC3)nc2)ccc1F` [Example 519, (R)-3-chloro-N-(1-(5-(2-cyclopropylpyrimidin-5-yl)-2-fluorophenyl)ethyl) quinolin-4-amine], the IC50 fell in the range of 1000 to 10000 nM.

As to `C=Cc1cccc([C@@H](C)Nc2c(Cl)cnc3cc(F)c(-c4cnc(C(C)(C)O)nc4)nc23)c1` [Example 574, (R)-2-(5-(7-chloro-3-fluoro-8-((1-(3-vinylphenyl)ethyl)amino)-1,5-naphthyridin-2-yl)pyrimidin-2-yl)propan-2-ol], the IC50 was under 1000 nM.

As for `C[C@@H](Nc1c(Cl)cnc2ccc(-c3ccc(C4(N)CCC4)cc3)cc12)c1ccccc1F` [Example 118, (R)-6-(4-(1-aminocyclobutyl)phenyl)-3-chloro-N-(1-(2-fluorophenyl)ethyl)quinolin-4-amine], the IC50 was under 1000 nM.

For the molecule `CC(Nc1c(Cl)cnc2cc(F)c(-c3ccc(C(O)CN4CCOCC4)cc3)cc12)c1ccccc1F` (stereo not shown) [Example 286, 1-(4-(3-chloro-7-fluoro-4-((1-(2-fluorophenyl)ethyl)amino)quinolin-6-yl)phenyl)-2-morpholinoethan-1-ol], the IC50 was under 1000 nM.

With `CC(Nc1c(Cl)cnc2c(F)cc(-c3cnc(C(C)(C)O)nc3)cc12)c1cc(Br)ccc1F` (single isomer, unassigned) [Example 612, 2-(5-(4-((1-(5-bromo-2-fluorophenyl)ethyl)amino)-3-chloro-8-fluoroquinolin-6-yl)pyrimidin-2-yl)propan-2-ol], the IC50 is under 1000 nM.

Consider `CC(C)C(Nc1c(Cl)cnc2ccc(-c3cnc(C(C)(C)O)nc3)cc12)c1ccccn1` (racemic) [Example 51, 2-(5-(3-chloro-4-((2-methyl-1-(pyridin-2-yl)propyl)amino)quinolin-6-yl)pyrimidin-2-yl)propan-2-ol], for which the IC50 is under 1000 nM.

Turning to `CCC(Nc1c(Cl)cnc2ccc(-c3cnc(N4CCNC(=O)C4)nc3)cc12)c1nc(C(N)=O)ccc1F` (racemic) [Example 23, 6-(1-((3-chloro-6-(2-(3-oxopiperazin-1-yl)pyrimidin-5-yl)quinolin-4-yl)amino)propyl)-5-fluoropicolinamide], the half-inhibitory concentration (IC50) is under 1000 nM.

Take `CC(Cc1ccco1)Nc1c(Cl)cnc2ccc(-c3cnc(C(C)(C)O)nc3)cc12` (racemic) [Example 133, 2-(5-(3-chloro-4-((1-(furan-2-yl)propan-2-yl)amino)quinolin-6-yl)pyrimidin-2-yl)propan-2-ol]: the IC50 is under 1000 nM.

For the molecule `O=C(O)CN1CCN(c2ccc(-c3ccc4ncc(Cl)c(N[C@@H](c5ccccc5F)C(F)F)c4c3)cn2)CC1` [Example 15, (S)-2-(4-(5-(3-chloro-4-((2,2-difluoro-1-(2-fluorophenyl)ethyl)amino)quinolin-6-yl)pyridin-2-yl)piperazin-1-yl)acetic acid], the IC50 was under 1000 nM.

As to `CC(C)(O)c1ncc(-c2nc3c(N[C@@H](c4cc(C(O)CO)ccc4F)C(F)F)c(Cl)cnc3cc2F)cn1` (stereo partly drawn) [Example 492, 1-(3-((S)-1-((3-chloro-7-fluoro-6-(2-(2-hydroxypropan-2-yl)pyrimidin-5-yl)-1,5-naphthyridin-4-yl)amino)-2,2-difluoroethyl)-4-fluorophenyl)ethane-1,2-diol], the IC50 is under 1000 nM.

For `COc1ccc(F)c(CNc2c(Cl)cnc3ccccc23)c1` [Example 517, 3-chloro-N-(2-fluoro-5-methoxybenzyl)quinolin-4-amine], the IC50 lay within 1000 to 10000 nM.

With `C[C@H](Nc1c(Cl)cnc2cc(F)c(-c3cnc(C(C)(C)O)nc3)nc12)c1ccccc1` [Example 208, (S)-2-(5-(7-chloro-3-fluoro-8-((1-phenylethyl)amino)-1,5-naphthyridin-2-yl)pyrimidin-2-yl)propan-2-ol], the IC50 was under 1000 nM.

For the molecule `C[C@@H](Nc1c(Cl)cnc2ccc(-c3cnc(C(C)(C)O)nc3)cc12)c1cc(-c2ccc(N)nc2)ccc1F` [Example 348, (R)-2-(5-(4-((1-(5-(6-aminopyridin-3-yl)-2-fluorophenyl)ethyl)amino)-3-chloroquinolin-6-yl)pyrimidin-2-yl)propan-2-ol], the IC50 is under 1000 nM.

With `C[C@@H](Nc1c(Cl)cnc2ccccc12)c1cc(-c2cccc(N)c2)ccc1F` [Example 526, (R)—N-(1-(3′-amino-4-fluoro-[1,1′-biphenyl]-3-yl)ethyl)-3-chloroquinolin-4-amine], the IC50 lay in the range of 1000 to 10000 nM.

For `Cc1ccc(C)c(Nc2c(Cl)c(CN=[N+]=[N-])nc3ccc(-c4ccc(C#N)nc4)cc23)c1` [Example 42, 5-(2-(azidomethyl)-3-chloro-4-((2,5-dimethylphenyl)amino)quinolin-6-yl)picolinonitrile], the half-maximal inhibitory concentration (IC50) was in the range of 1000 to 10000 nM.

For `C[C@@H](Nc1c(Cl)cnc2cc(F)c(-c3cnc(C4CCN(CC(=O)O)CC4)nc3)cc12)c1ccccc1F` [Example 594, (R)-2-(4-(5-(3-chloro-7-fluoro-4-((1-(2-fluorophenyl)ethyl)amino)quinolin-6-yl)pyrimidin-2-yl)piperidin-1-yl)acetic acid], the IC50 is under 1000 nM.

In the case of `COc1ccncc1-c1ccc(F)c([C@@H](C)Nc2c(Cl)cnc3ccccc23)c1` [Example 548, (R)-3-chloro-N-(1-(2-fluoro-5-(4-methoxypyridin-3-yl)phenyl)ethyl) quinolin-4-amine], the IC50 is under 1000 nM.

Turning to `CC(Nc1c(Cl)cnc2cc(F)c(-c3cnc(C(O)CN4CCOCC4)cn3)cc12)c1ccccc1F` (stereo not shown) [Example 273, 1-(5-(3-chloro-7-fluoro-4-((1-(2-fluorophenyl)ethyl)amino)quinolin-6-yl)pyrazin-2-yl)-2-morpholinoethan-1-ol], the IC50 was under 1000 nM.

Turning to `Cc1nc2ccc(-c3ccc(C(C)(C)O)cc3)cc2c(N[C@H](C)c2cc(C(N)=O)ccc2F)c1Cl` [Example 312, (R)-3-(1-((3-chloro-6-(4-(2-hydroxypropan-2-yl)phenyl)-2-methylquinolin-4-yl)amino)ethyl)-4-fluorobenzamide], the IC50 is under 1000 nM.

Take `C[C@H](Nc1c(Cl)cnc2ccc(-c3cnc(C(C)(C)O)nc3)cc12)[C@H]1CCCN(S(C)(=O)=O)C1` [Example 563, 2-(5-(3-chloro-4-(((S)-1-((S)-1-(methylsulfonyl)piperidin-3-yl)ethyl)amino)quinolin-6-yl)pyrimidin-2-yl)propan-2-ol]: the IC50 lay within 1000 to 10000 nM.

With `C[C@@H](Nc1c(Cl)cnc2ccc(-c3cnc(C(C)(C)O)nc3)cc12)c1cc(-c2cc(C(=O)O)[nH]n2)ccc1F` [Example 428, (R)-3-(3-(1-((3-chloro-6-(2-(2-hydroxypropan-2-yl)pyrimidin-5-yl)quinolin-4-yl)amino)ethyl)-4-fluorophenyl)-1H-pyrazole-5-carboxylic acid], the IC50 lay in the range of 10000 to 25000 nM.

Regarding `CC(Cc1cn(C)c(=O)c2ccccc12)Nc1c(Cl)cnc2ccc(-c3cnc(C(C)(C)O)nc3)cc12` (racemic) [Example 138, 4-(2-((3-chloro-6-(2-(2-hydroxypropan-2-yl)pyrimidin-5-yl)quinolin-4-yl)amino)propyl)-2-methylisoquinolin-1(2H)-one], the IC50 lay in the range of 10000 to 25000 nM.

With `CC(C)(O)c1ncc(-c2ccc3ncc(Cl)c(NC(CC(F)(F)F)c4ccccc4)c3c2)cn1` (racemic) [Example 165, 2-(5-(3-chloro-4-((3,3,3-trifluoro-1-phenylpropyl)amino)quinolin-6-yl)pyrimidin-2-yl)propan-2-ol], the concentration for half-maximal inhibition (IC50) was under 1000 nM.

Take `CC(Nc1c(Cl)cnc2ccc(-c3ccc(C(C)(C)O)cc3)cc12)c1ccsc1` (racemic) [Example 196, 2-(4-(3-chloro-4-((1-(thiophen-3-yl)ethyl)amino)quinolin-6-yl)phenyl)propan-2-ol]: the IC50 was under 1000 nM.

For `C[C@@H](Nc1c(Cl)cnc2ccccc12)c1cc(-c2cccc(C#N)c2)ccc1F` [Example 539, (R)-3′-(1-((3-chloroquinolin-4-yl)amino)ethyl)-4′-fluoro-[1,1′-biphenyl]-3-carbonitrile], the IC50 was under 1000 nM.

Take `Cc1nc2ccc(-c3cnc(C(C)(C)O)nc3)cc2c(N[C@H](C)c2cc(C(C)O)ccc2F)c1Cl` (mixture of isomers) [Example 433, 2-(5-(3-chloro-4-(((1R)-1-(2-fluoro-5-(1-hydroxyethyl)phenyl)ethyl)amino)-2-methylquinolin-6-yl)pyrimidin-2-yl)propan-2-ol]: the IC50 was under 1000 nM.
